Reference: patent US9765073B2, “Cyclopropabenzofuranyl pyridopyrazinediones” (Pfizer Inc., priority 2015, dated 2017)

Test system: γ-secretase
Experiment: Cell-Based γ-Secretase Assay with ELISA Readout
Design: species or system human
Settings: comparison of the Table 7 potencies of separated enantiomers
Method: The ability of compounds to modulate production of amyloid beta protein Aβ(1-42) was determined using human WT-APP overexpressing CHO cells. Cells were plated at 22,000 cells/100 μL well in 96 well tissue culture treated, clear plates (Falcon) in DMEM/F12 based medium and incubated for 24 h at 37° C. Compounds for testing were diluted in 100% DMSO to achieve an eleven point, half log, dose response for IC50 determinations. Compounds were added in fresh medium to achieve 1% final DMSO. Appropriate vehicle or inhibitor controls were added into control wells individually to obtain minimum or maximum inhibition values, respectively, for the assay signal window before the plates were incubated for ˜24 h at 37° C. This procedure produces conditioned media in each well, which is tested for Aβ(1-42) levels in the ELISA detection step described next. The remaining cell cultures in each well are also tested for cell toxicity as described below.
Coating of ELISA assay plates was initiated by addition of 50 μL/well of an in-house Aβ(1-42) specific antibody (3 μg/mL) in 0.1 M NaHCO3 (pH 9.0) into black 384-well Maxisorp® plates (Nunc); incubation was carried out overnight at 4° C. The capture antibody was then aspirated from the ELISA assay plates and plates were washed either 2×100 μL with a Matrical Squirt plate washer, or 3×90 μL with a Thermo Combi, using Wash Buffer (Dulbecco's PBS, 0.05% Tween 20). 90 μL/well of Blocking Buffer (Dulbecco's PBS, 1.0% BSA (Sigma A7030) was then added to plates. Ambient temperature incubation was allowed to proceed for a minimum of 2 h. Blocking Buffer was then removed and 20 μL/well Assay Buffer (Dulbecco's PBS, 1.0% BSA (Sigma A7030), 0.05% Tween 20) was then added. At this point, 35 μL (40 μL prior to August, 2012) (in duplicate) of experimental conditioned media (described above) was transferred into wells of the blocked ELISA plates containing the capture antibody, followed by overnight incubation at 4° C. Cell toxicity was also measured in the corresponding remaining cells after removal of the conditioned media for the Aβ(1-42) assay by a colorimetric cell proliferation assay (CellTiter 96® AQueous One Solution Cell Proliferation Assay, Promega) according to the manufacturer's instructions.
After overnight incubation of the ELISA assay plates at 4° C., unbound Aβ peptides were removed via either 2×100 μL washes with a Matrical Squirt plate washer, or 3×90 μL washes with a Thermo Combi, using Wash Buffer. Europium (Eu) labeled (custom labeled, PerkinElmer) Aβ(1-16) 6e10 Monoclonal Antibody (Covance #SIG-39320) was added, (50 μL/well Eu-6e10@1:10,000, 20 uM EDTA) in Assay Buffer. Incubation at ambient temperature for a minimum of 2 h was followed by either 2×100 μL washes with a Matrical Squirt plate washer, or 3×90 μL washes with a Thermo Combi, using Wash Buffer, before 30 μL/well of Delfia Enhancement Solution (PerkinElmer) was added. Following 30 to 60 min ambient temperature incubation, the plates were read on an EnVision plate reader (PerkinElmer) using standard DELFIA TRF settings. Data analysis including inhibitory IC50 determination was performed using nonlinear regression fit analysis (in-house software) and the appropriate plate mean values for the maximum and minimum inhibition controls.

Compound | potency compared with its enantiomer
Cc1cn(-c2ccc3n(c2=O)CCN(C[C@@]24C[C@]2(C)Oc2ccc(OC(F)(F)F)cc24)C3=O)cn1 (single isomer, unassigned) [Example 2] | more potent than its enantiomer 3

Same assay, conditions: production of Aβ(1-42) in human WT-APP overexpressing CHO cells, ~24 h; footnote a = single determination, footnote b = geometric mean of ≧5 determinations; read-out: Aβ 42B IC50 (nM) Geometric mean of 2-4 determinations (unless otherwise indicated)

Compound | IC50 [nM]
Cc1cn(-c2ccc3n(c2=O)CCN(CC24CC2(C)Oc2c(F)cc(OC(F)(F)F)cc24)C3=O)cn1 (racemic) [Example C33, 2-{[3-fluoro-1a-methyl-5-(trifluoromethoxy)-1,1a-dihydro-6bH-cyclopropa[b][1]benzofuran-6b-yl]methyl}-7-(4-methyl-1H-imidazol-1-yl)-3,4-dihydro-2H-pyrido[1,2-a]pyrazine-1,6-dione] | 9.3
Cc1cn(-c2ccc3n(c2=O)CCN(C[C@@]24C[C@]2(C)Oc2ccc(OC(F)(F)F)cc24)C3=O)cn1 (single isomer, unassigned) [Example 2] | 6.5
Cc1cn(-c2ccc3n(c2=O)CCN(C[C@]24C[C@@]2(C)Oc2ccc(OC(F)(F)F)cc24)C3=O)cn1 (single isomer, unassigned) [Example 3] | 59.2
Cc1cn(-c2ccc3n(c2=O)CCN(C[C@@]24C[C@]2(C)Oc2c(F)cc(OC(F)(F)F)cc24)C3=O)cn1 (single isomer, unassigned) [Example 4] | 4.9
Cc1cn(-c2ccc3n(c2=O)CCN(C[C@]24C[C@@]2(C)Oc2c(F)cc(OC(F)(F)F)cc24)C3=O)cn1 (single isomer, unassigned) [Example 5] | 59.2
Cc1cn(-c2ccc3n(c2=O)CCN(C[C@]24C[C@@]2(C)Oc2cc(F)c(OC(F)(F)F)cc24)C3=O)cn1 (single isomer, unassigned) [Example 7] | 38
Cc1ncn(-c2ccc3n(c2=O)CCN(C[C@]24C[C@@]2(C)Oc2cc(F)c(OC(F)(F)F)cc24)C3=O)n1 (single isomer, unassigned) [Example 9] | 519
Cc1cn(-c2ccc3n(c2=O)CCN(C[C@]24C[C@@]2(C)Oc2cc(F)c(OC(F)F)cc24)C3=O)cn1 (single isomer, unassigned) [Example 13] | 84.9
Cc1cn(-c2ccc3n(c2=O)CCN(C[C@@]24C[C@]2(C)Oc2cc(F)c(C(F)(F)F)cc24)C3=O)cn1 (single isomer, unassigned) [Example 17] | 4.4
Cc1cn(-c2ccc3n(c2=O)CCN(C[C@]24C[C@@]2(C)Oc2cc(F)c(C(F)(F)F)cc24)C3=O)cn1 (single isomer, unassigned) [Example 18] | 20.2
Cc1cn(-c2ccc3n(c2=O)CCN(C[C@@]24C[C@]2(C)Oc2c(F)cc(C(F)(F)F)cc24)C3=O)cn1 (single isomer, unassigned) [Example 19] | 11.1
Cc1cn(-c2ccc3n(c2=O)CCN(C[C@]24C[C@@]2(C)Oc2c(F)cc(C(F)(F)F)cc24)C3=O)cn1 (single isomer, unassigned) [Example 20] | 50.1
Cc1cn(-c2ccc3n(c2=O)CCN(CC24CC2Oc2ccc(C(F)(F)F)cc24)C3=O)cn1 (stereo not drawn) [Example 1, 7-(4-Methyl-1H-imidazol-1-yl)-2-{[5-(trifluoromethyl)-1,1a-dihydro-6bH-cyclopropa[b][1]benzofuran-6b-yl]methyl}-3,4-dihydro-2H-pyrido[1,2-a]pyrazine-1,6-dione] | 48.5
C[C@]12C[C@@]1(CN1CCn3c(ccc(-n4cnc(CO)c4)c3=O)C1=O)c1cc(OC(F)(F)F)c(F)cc1O2 [Example 14, 2-{[(1aS,6bS)-4-fluoro-1a-methyl-5-(trifluoromethoxy)-1,1a-dihydro-6bH-cyclopropa[b][1]benzofuran-6b-yl]methyl}-7-[4-(hydroxymethyl)-1H-imidazol-1-yl]-3,4-dihydro-2H-pyrido[1,2-a]pyrazine-1,6-dione] | 18.7
Cc1cn(-c2ccc3n(c2=O)CCN(CC24CC2(C)Oc2cc(F)c(OC(F)(F)F)cc24)C3=O)cn1 (stereo not drawn) [Example C40, 2-{[4-fluoro-1a-methyl-5-(trifluoromethoxy)-1,1a-dihydro-6bH-cyclopropa[b][1]benzofuran-6b-yl]methyl}-7-(4-methyl-1H-imidazol-1-yl)-3,4-dihydro-2H-pyrido[1,2-a]pyrazine-1,6-dione] | 11.2
Cc1ncn(-c2ccc3n(c2=O)CCN(CC24CC2(C)Oc2cc(F)c(OC(F)(F)F)cc24)C3=O)n1 (stereo not drawn) [Example C44, 2-{[4-fluoro-1a-methyl-5-(trifluoromethoxy)-1,1a-dihydro-6bH-cyclopropa[b][1]benzofuran-6b-yl]methyl}-7-(3-methyl-1H-1,2,4-triazol-1-yl)-3,4-dihydro-2H-pyrido[1,2-a]pyrazine-1,6-dione] | 68.9

Further compounds by falling IC50, results first:

IC50 [nM] | Compound
58.3 | Cc1cn(-c2ccc3n(c2=O)CCN(C[C@]24C[C@@]2(C)Oc2c(Cl)cc(C(F)(F)F)cc24)C3=O)cn1 (single isomer, unassigned) [Example 22]
47.3 | Cc1cn(-c2ccc3n(c2=O)CCN(C[C@]24C[C@@]2(C)Oc2ccc(C(F)(F)F)cc24)C3=O)cn1 [Example 16, 7-(4-methyl-1H-imidazol-1-yl)-2-{[(1aR,6bR)-1a-methyl-5-(trifluoromethyl)-1,1a-dihydro-6bH-cyclopropa[b][1]benzofuran-6b-yl]methyl}-3,4-dihydro-2H-pyrido[1,2-a]pyrazine-1,6-dione]
36.6 | Cc1ncn(-c2ccc3n(c2=O)CCN(C[C@@]24C[C@]2(C)Oc2cc(F)c(OC(F)(F)F)cc24)C3=O)n1 (single isomer, unassigned) [Example 8]
19.5 | Cc1cn(-c2ccc3n(c2=O)CCN(CC24CC2(C)Oc2ccc(OC(F)(F)F)cc24)C3=O)cn1 (stereo not drawn) [Example C22, 7-(4-methyl-1H-imidazol-1-yl)-2-{[1a-methyl-5-(trifluoromethoxy)-1,1a-dihydro-6bH-cyclopropa[b][1]benzofuran-6b-yl]methyl}-3,4-dihydro-2H-pyrido[1,2-a]pyrazine-1,6-dione]
17.8 | Cc1cn(-c2ccc3n(c2=O)CCN(C[C@@]24C[C@]2(C)Oc2cc(F)c(OC(F)F)cc24)C3=O)cn1 (single isomer, unassigned) [Example 12]
16 | Cc1cn(-c2ccc3n(c2=O)CCN(C[C@@]24C[C@]2(C)Oc2c(Cl)cc(C(F)(F)F)cc24)C3=O)cn1 (single isomer, unassigned) [Example 21]
10 | Cc1cn(-c2ccc3n(c2=O)CCN(C[C@]24C[C@@]2(C)Oc2cc(Cl)c(C(F)(F)F)cc24)C3=O)cn1 (single isomer, unassigned) [Example 11]
8.5 | Cc1cn(-c2ccc3n(c2=O)CCN(C[C@@]24C[C@]2(C)Oc2ccc(C(F)(F)F)cc24)C3=O)cn1 [Example 15, 7-(4-methyl-1H-imidazol-1-yl)-2-{[(1aS,6bS)-1a-methyl-5-(trifluoromethyl)-1,1a-dihydro-6bH-cyclopropa[b][1]benzofuran-6b-yl]methyl}-3,4-dihydro-2H-pyrido[1,2-a]pyrazine-1,6-dione]
7 | Cc1cn(-c2ccc3n(c2=O)CCN(C[C@@]24C[C@]2(C)Oc2cc(F)c(OC(F)(F)F)cc24)C3=O)cn1 (single isomer, unassigned) [Example 6]
3 | Cc1cn(-c2ccc3n(c2=O)CCN(C[C@@]24C[C@]2(C)Oc2cc(Cl)c(C(F)(F)F)cc24)C3=O)cn1 (single isomer, unassigned) [Example 10]
